Paper PMC3280214, “Structure Based Discovery of Small Molecules to Regulate the Activity of Human Insulin Degrading Enzyme” (PLoS ONE, 2012)

Biological target: T1, IDE (Homo sapiens, UniProt P14735)
T1 construct: made in house; host or cells: E. coli BL21
T1 sequence (P14735 1-1019): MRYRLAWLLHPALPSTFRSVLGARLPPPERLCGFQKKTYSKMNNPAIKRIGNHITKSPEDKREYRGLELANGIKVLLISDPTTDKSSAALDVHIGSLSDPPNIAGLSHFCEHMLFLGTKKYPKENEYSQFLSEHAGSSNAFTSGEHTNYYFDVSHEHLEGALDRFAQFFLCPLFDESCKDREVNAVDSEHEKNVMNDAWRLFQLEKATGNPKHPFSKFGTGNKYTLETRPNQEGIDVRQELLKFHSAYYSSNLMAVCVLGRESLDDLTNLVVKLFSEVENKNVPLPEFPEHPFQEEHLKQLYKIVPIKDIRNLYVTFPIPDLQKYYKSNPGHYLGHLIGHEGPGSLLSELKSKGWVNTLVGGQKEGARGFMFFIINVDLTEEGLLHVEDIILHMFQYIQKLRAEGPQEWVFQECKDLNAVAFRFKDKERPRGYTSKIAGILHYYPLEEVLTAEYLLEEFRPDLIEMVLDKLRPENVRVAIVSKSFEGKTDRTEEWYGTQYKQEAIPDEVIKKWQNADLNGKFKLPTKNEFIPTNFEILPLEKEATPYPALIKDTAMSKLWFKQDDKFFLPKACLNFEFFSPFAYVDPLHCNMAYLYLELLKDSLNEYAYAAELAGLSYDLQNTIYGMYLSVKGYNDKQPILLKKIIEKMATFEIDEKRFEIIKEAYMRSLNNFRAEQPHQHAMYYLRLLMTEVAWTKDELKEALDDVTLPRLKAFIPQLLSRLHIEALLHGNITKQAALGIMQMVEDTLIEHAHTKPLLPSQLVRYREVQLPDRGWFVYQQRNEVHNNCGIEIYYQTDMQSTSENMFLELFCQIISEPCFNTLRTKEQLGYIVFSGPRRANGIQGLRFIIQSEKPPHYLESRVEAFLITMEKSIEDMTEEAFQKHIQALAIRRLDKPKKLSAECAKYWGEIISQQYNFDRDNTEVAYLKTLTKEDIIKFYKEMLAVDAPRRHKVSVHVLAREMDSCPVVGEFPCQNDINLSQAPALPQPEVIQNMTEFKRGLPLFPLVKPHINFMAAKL
Assay: Enzymatic competition assay with bradykinin
Type: biochemical
Conditions: bradykinin 2.1, 4.2 and 8.4 mM; varying D10 (0–50 µM)
Excerpt: Since D10 has been found as the strongest activator of IDE towards the proteolysis of insulin, we analyzed the binding site of the compound D10 for the further analysis. According to the computational results, D10 binds to Gln363 at the IDE exosite and His332 (Fig. 1D). We carried out site-directed mutagenesis by replacing these amino acids into Ala in order to verify that D10 indeed binds to this region via these amino acids. We first mutated Gln363 to Ala and then expressed and purified mutant protein through nickel resin. The effect of D10 on the proteolytic activity of mutant IDE (Gln363Ala) was measured towards FITC-insulin-mAb degradation. […] The activation was about 49-fold in the presence of D10 with wild type IDE (Fig. 2B). Although mutant IDE activity was less responsive to D10 compound compared to wild type IDE, it appeared as if D10 were interacting with IDE through […] and could enhance the activity of mutant IDE. Therefore, we generated a double mutant IDE (Gln363Ala, His332Ala) in order to eliminate the binding of D10 to the exosite region completely. […]
The effect of the bradykinin on the clearance of insulin was measured in the presence of compound D10. […] The fluorescence increase was monitored by using Fluoroskan Ascent FL microplate reader (Thermo).

Cc1nn(-c2ccccc2)c2nc(-c3cccc([N+](=O)[O-])c3)n3c4ccccc4nc3c2c1=O [Compound D10]
decrease of insulin degradation in presence of compound when bradykinin is added: about 50%
